Experimental findings from patent US20260103465A1, “GLYCOGEN SYNTHASE KINASE 3 INHIBITORS AND USES THEREOF” (The Broad Institute, Inc., priority 2023, published 2026) are described below.

The target of assay [1] is T1, GSK3a (GST-full length GSK3a) (Homo sapiens, UniProt P49840).
T1 construct: GST-full length GSK3a [SignalChem G08-10G]; purchased SignalChem G08-10G
The experiment in a line: GSK3a TR-FRET kinase inhibition assay. Type of assay: biochemical. Summed up: (§1)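 GST-tagged full-length human kinase (1 nM), pre-incubated 30 min with compound, then reacted 100 min at ambient temperature at pH 7.5 with 200 nM biotinylated phospho-S645 glycogen synthase 631–650 peptide and ATP at 2 μM–1 mM. After EDTA quench, Tb-pSer641 antibody/streptavidin-d2 TR-FRET 665/615 ratio fitted for IC50.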
Background: Time-resolved FRET reads energy transfer from a long-lived donor to a nearby acceptor.

In assay [2] the target is T2, GSK3b (GST-full length GSK3b) (Homo sapiens, UniProt P49841).
T2 construct: GST-full length GSK3b: [SignalChem G08-9G]; purchased SignalChem G08-9G
In words: GSK3b TR-FRET kinase inhibition assay. The format is biochemical. An outline of the steps:
as §1

[3] abbreviates: 1 mM ATP, Table 3, read-out: GSK3a TR-FRET 1 mM ATP Average IC50.
The mark [4] stands for this setting: 1 mM ATP, Table 3, read-out: GSK3b TR-FRET 1 mM ATP Average IC50.
Where [5] appears, read: 4 μM ATP, read-out: GSK3α TR-FRET 4 μM ATP GMean IC50.
The mark [6] stands for this setting: 2 μM ATP, read-out: GSK3β TR-FRET 2 μM ATP GMean IC50.

pIC50: −log10 of the molar value. Like-named read-outs stand apart in the source and are kept apart here.

T2 sequence (P49841 whole entry): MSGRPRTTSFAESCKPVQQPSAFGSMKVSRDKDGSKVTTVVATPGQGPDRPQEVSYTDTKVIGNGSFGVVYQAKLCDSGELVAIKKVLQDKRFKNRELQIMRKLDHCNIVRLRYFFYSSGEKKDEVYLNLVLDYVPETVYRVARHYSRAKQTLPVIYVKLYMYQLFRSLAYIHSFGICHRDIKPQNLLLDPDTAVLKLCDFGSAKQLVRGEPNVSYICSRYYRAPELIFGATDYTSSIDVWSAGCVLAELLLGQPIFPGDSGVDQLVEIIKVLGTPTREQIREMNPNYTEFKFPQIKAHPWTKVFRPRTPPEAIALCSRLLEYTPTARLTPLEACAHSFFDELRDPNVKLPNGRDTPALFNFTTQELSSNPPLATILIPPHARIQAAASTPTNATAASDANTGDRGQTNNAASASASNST
T1 sequence (P49840 whole entry): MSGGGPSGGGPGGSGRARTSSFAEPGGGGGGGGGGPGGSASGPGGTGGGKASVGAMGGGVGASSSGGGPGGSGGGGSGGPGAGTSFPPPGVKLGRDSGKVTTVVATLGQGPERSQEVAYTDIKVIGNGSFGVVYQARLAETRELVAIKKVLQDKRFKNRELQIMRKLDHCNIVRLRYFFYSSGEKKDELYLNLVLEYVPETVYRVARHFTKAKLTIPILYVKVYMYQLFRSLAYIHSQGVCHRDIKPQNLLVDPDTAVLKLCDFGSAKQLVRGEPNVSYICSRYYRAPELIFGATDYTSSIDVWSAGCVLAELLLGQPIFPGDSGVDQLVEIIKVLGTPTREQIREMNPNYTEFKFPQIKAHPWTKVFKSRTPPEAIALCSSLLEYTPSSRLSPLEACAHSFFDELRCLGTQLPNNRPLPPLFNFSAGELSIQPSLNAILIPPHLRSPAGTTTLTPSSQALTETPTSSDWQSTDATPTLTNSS

For `CC1(C)CC(=O)C2=C(C1)Nc1ncc(C(F)(F)F)c(Cl)c1C2(C)c1ccccc1` (single isomer, unassigned) [Compound 141B], the pIC50 in assay [1] (setting [3]) and in assay [2] (setting [4]) was 5.30 to 6.00 in each case.

With `Cc1c(F)cnc2c1C(C)(c1cccc(S(C)(=O)=O)c1)C1=C(CC(C)(C)CC1=O)N2` (single isomer, unassigned) [Compound 144A], the pIC50 in assay [1] (setting [3]) and in assay [2] (setting [4]) was 6.00 to 7.00 in each case.

`Cc1c(F)cnc2c1C(C)(c1cccc(S(C)(=O)=O)c1)C1=C(CC(C)(C)CC1=O)N2` (single isomer, unassigned) [Compound 144B]: the pIC50 in assay [1] (setting [3]) and in assay [2] (setting [4]) was 4.70 to 5.30 throughout.

Turning to `CC1(C)CC(=O)C2=C(C1)Nc1ncc(Br)c(Cl)c1C2(C)c1ccccc1` (single isomer, unassigned) [Compound 145A], the pIC50 in assay [1] (setting [3]) and in assay [2] (setting [4]) was 5.30 to 6.00 each time.

Consider `CC1(C)CC(=O)C2=C(C1)Nc1ncc(Br)c(Cl)c1C2(C)c1ccccc1` (single isomer, unassigned) [Compound 145B], for which the pIC50 in assay [1] (setting [3]) and in assay [2] (setting [4]) was 4.70 to 5.30 throughout.

In the case of `CCC1(c2cccc(-c3ccnc(C)c3C)c2)C2=C(CC(C)(C)CC2=O)Nc2ncccc21` (single isomer, unassigned) [Compound 147A], the pIC50 – broadly, −log10 of the IC50, conventionally taken in molar units – was 6.00 to 7.00 in assay [1] (setting [3]) and 5.30 to 6.00 in assay [2] (setting [4]).

As for `CC1(C)CC(=O)C2=C(C1)Nc1ncc(F)c(C#N)c1C2(C)c1cccc(S(C)(=O)=O)c1` (single isomer, unassigned) [Compound 148A], the pIC50 in assay [1] (setting [3]) and in assay [2] (setting [4]) was at least 7.00 in each case.

With `CC1(C)CC(=O)C2=C(C1)Nc1ncc(F)c(C#N)c1C2(C)c1cccc(S(C)(=O)=O)c1` (single isomer, unassigned) [Compound 148B], the pIC50 in assay [1] (setting [3]) and in assay [2] (setting [4]) was 4.70 to 5.30 throughout.

In the case of `CCC1(c2cccc(-c3cncn3C(C)C)c2)C2=C(CC(C)(C)CC2=O)Nc2ncccc21` (single isomer, unassigned) [Compound 149B], the pIC50 in assay [1] (setting [5]) and in assay [2] (setting [6]) was 6.00 to 7.00 each time.

For the molecule `CC1(C)CC(=O)C2=C(C1)Nc1ncccc1C2(C)c1cccc(-c2ccncc2C2CCC2)c1` (single isomer, unassigned) [Compound 151A], the pIC50 in assay [1] (setting [3]) and in assay [2] (setting [4]) was 5.30 to 6.00 in each case.

For the molecule `CC1(C)CC(=O)C2=C(C1)Nc1ncccc1C2(C)c1cccc(-c2ccncc2C(C)(C)C)c1` (single isomer, unassigned) [Compound 152A], the results for the pIC50 in assay [1] (setting [3]) and in assay [2] (setting [4]) were 5.30 to 6.00 and 4.70 to 5.30, respectively.

On to `CC1(C)CC(=O)C2=C(C1)Nc1ncc(F)c(C3CC3)c1C2(C)c1cccc(S(C)(=O)=O)c1` (single isomer, unassigned) [Compound 153A], for which the pIC50 in assay [1] (setting [3]) and in assay [2] (setting [4]) was at least 7.00 in each case.

Regarding `CC1(C)CC(=O)C2=C(C1)Nc1ncc(F)c(C3CC3)c1C2(C)c1cccc(S(C)(=O)=O)c1` (single isomer, unassigned) [Compound 153B], the pIC50 in assay [1] (setting [3]) and in assay [2] (setting [4]) was 4.70 to 5.30 each time.

`COc1cncc(F)c1-c1cccc(C2(C)C3=C(CC(C)(C)CC3=O)Nc3ncc(C)cc32)c1` (single isomer, unassigned) [Compound 155A]: the pIC50 in assay [1] (setting [3]) is 6.00 to 7.00; in assay [2] (setting [4]), 5.30 to 6.00.

As to `COc1cncc(F)c1-c1cccc(C2(C)C3=C(CC(C)(C)CC3=O)Nc3ncc(C)cc32)c1` (single isomer, unassigned) [Compound 155B], the pIC50 in assay [1] (setting [3]) and in assay [2] (setting [4]) was 4.70 to 5.30 each time.

Turning to `COc1cncc(F)c1-c1cccc(C2(C)C3=C(CC(C)(C)CC3=O)Nc3ncc(F)cc32)c1` (single isomer, unassigned) [Compound 156A], the results for the pIC50 in assay [1] (setting [3]) and in assay [2] (setting [4]) were at least 7.00 and 6.00 to 7.00, respectively.

With `COc1cncc(F)c1-c1cccc(C2(C)C3=C(CC(C)(C)CC3=O)Nc3ncc(F)cc32)c1` (single isomer, unassigned) [Compound 156B], the pIC50 in assay [1] (setting [3]) and in assay [2] (setting [4]) was 4.70 to 5.30 in each case.

Regarding `CC1(C)CC(=O)C2=C(C1)Nc1ncc(C(F)(F)F)cc1C2(C)c1cccc(S(C)(=O)=O)c1` (single isomer, unassigned) [Compound 157A], the pIC50 in assay [1] (setting [3]) was 5.30 to 6.00; in assay [2] (setting [4]), 6.00 to 7.00.

`CC1(C)CC(=O)C2=C(C1)Nc1ncc(C(F)(F)F)cc1C2(C)c1cccc(S(C)(=O)=O)c1` (single isomer, unassigned) [Compound 157B]: the pIC50 in assay [1] (setting [3]) and in assay [2] (setting [4]) was 4.70 to 5.30 each time.

As for `CC1(C)CC(=O)C2=C(C1)Nc1ncccc1C2(C)c1cccc(-c2ccncc2N2CCCC2)c1` (single isomer, unassigned) [Compound 158A], the pIC50 in assay [1] (setting [3]) and in assay [2] (setting [4]) was 6.00 to 7.00 in each case.

For the molecule `CC(C)(C)Cn1nccc1-c1cccc(C2(C)C3=C(CC(C)(C)CC3=O)Nc3ncc(F)cc32)c1` (single isomer, unassigned) [Compound 160A], the pIC50 in assay [1] (setting [3]) and in assay [2] (setting [4]) was 6.00 to 7.00 each time.

On to `CC1(C)CC(=O)C2=C(C1)Nc1ncccc1C2(C)c1cccc(-c2ccncc2OCC(F)F)c1` (single isomer, unassigned) [Compound 162A], for which the pIC50 in assay [1] (setting [3]) was 4.70 to 5.30; in assay [2] (setting [4]) it was 5.30 to 6.00.

On to `CC1(C)CC(=O)C2=C(C1)Nc1ncccc1C2(C)c1cccc(-c2ccncc2OCC(F)F)c1` (single isomer, unassigned) [Compound 162B], for which the pIC50 in assay [1] (setting [3]) and in assay [2] (setting [4]) was 6.00 to 7.00 each time.

Consider `CC1(C)CC(=O)C2=C(C1)Nc1ncccc1C2(C)c1cccc(-c2ccncc2CC(F)(F)F)c1` (single isomer, unassigned) [Compound 163A], for which the pIC50 in assay [1] (setting [3]) and in assay [2] (setting [4]) was 6.00 to 7.00 throughout.

For `CC1(C)CC(=O)C2=C(C1)Nc1ncccc1C2(C)c1cccc(-c2ccncc2N2CCOCC2)c1` (single isomer, unassigned) [Compound 164A], the pIC50 in assay [1] (setting [3]) and in assay [2] (setting [4]) was 5.30 to 6.00 each time.

As for `CCC1(c2cccc(-c3ccnc4c3CCCC4)c2)C2=C(CC(C)(C)CC2=O)Nc2ncc(F)cc21` (single isomer, unassigned) [Compound 165A], the pIC50 in assay [1] (setting [5]) was 5.30 to 6.00; in assay [1] (10 μM ATP, read-out: GSK3a 10 μM ATP Average IC50) it was at least 7.00; in assay [1] (100 μM ATP, read-out: GSK3a 100 μM ATP Average IC50) it was at least 7.00; in assay [1] (setting [3]), 6.00 to 7.00; in assay [2] (setting [6]), under 5.30; in assay [2] (10 μM ATP, read-out: GSK3b 10 μM ATP Average IC50), at least 7.00. The pIC50 in assay [2] (100 μM ATP, read-out: GSK3b 100 μM ATP Average IC50) was at least 7.00; in assay [2] (setting [4]), 6.00 to 7.00.

For the molecule `CC1(C)CC(=O)C2=C(C1)Nc1ncc(F)c(C(F)(F)F)c1C2(C)c1cccc(S(C)(=O)=O)c1` (single isomer, unassigned) [Compound 166A], the pIC50 in assay [1] (setting [3]) and in assay [2] (setting [4]) was 6.00 to 7.00 each time.

For the molecule `CC1(C)CC(=O)C2=C(C1)Nc1ncc(F)c(C(F)(F)F)c1C2(C)c1cccc(S(C)(=O)=O)c1` (single isomer, unassigned) [Compound 166B], the pIC50 in assay [1] (setting [3]) and in assay [2] (setting [4]) was 4.70 to 5.30 in each case.

`COc1cncc(F)c1-c1cccc(C2(C)C3=C(CC(C)(C)CC3=O)Nc3ncc(C4CC4)cc32)c1` (single isomer, unassigned) [Compound 167A]: the pIC50 in assay [1] (setting [3]) and in assay [2] (setting [4]) was 6.00 to 7.00 throughout.

Consider `COc1cncc(F)c1-c1cccc(C2(C)C3=C(CC(C)(C)CC3=O)Nc3ncc(C4CC4)cc32)c1` (single isomer, unassigned) [Compound 167B], for which the pIC50 in assay [1] (setting [3]) and in assay [2] (setting [4]) was 5.30 to 6.00 in each case.

For `CC1(C)CC(=O)C2=C(C1)Nc1ncc(F)cc1C2(C)c1cccc(-c2c(F)cncc2CC2CC2)c1` (single isomer, unassigned) [Compound 169A], the pIC50 in assay [1] (setting [3]) and in assay [2] (setting [4]) was 6.00 to 7.00 in each case.

Regarding `Cc1nn(C)c(C)c1-c1cccc(C2(C)C3=C(CC(C)(C)CC3=O)Nc3ncc(C(F)(F)F)cc32)c1` (single isomer, unassigned) [Compound 170A], the pIC50 in assay [1] (setting [3]) and in assay [2] (setting [4]) was 5.30 to 6.00 in each case.

Take `Cc1nn(C)c(C)c1-c1cccc(C2(C)C3=C(CC(C)(C)CC3=O)Nc3ncc(C(F)(F)F)cc32)c1` (single isomer, unassigned) [Compound 170B]: the pIC50 in assay [1] (setting [3]) is 4.70 to 5.30; in assay [2] (setting [4]), 5.30 to 6.00.

For `CC(C)n1cncc1-c1cccc(C2(C)C3=C(CC(C)(C)CC3=O)Nc3ncc(C(F)(F)F)cc32)c1` (single isomer, unassigned) [Compound 171A], the pIC50 in assay [1] (setting [3]) and in assay [2] (setting [4]) was 5.30 to 6.00 each time.

Turning to `CC(C)n1cncc1-c1cccc(C2(C)C3=C(CC(C)(C)CC3=O)Nc3ncc(C(F)(F)F)cc32)c1` (single isomer, unassigned) [Compound 171B], the pIC50 was 5.30 to 6.00 in assay [1] (setting [3]) and 6.00 to 7.00 in assay [2] (setting [4]).

Take `COc1cncc(CC(C)(C)C)c1-c1cccc(C2(C)C3=C(CC(C)(C)CC3=O)Nc3ncccc32)c1` (single isomer, unassigned) [Compound 172A]: the pIC50 in assay [1] (setting [3]) and in assay [2] (setting [4]) was 6.00 to 7.00 throughout.

Consider `CC(C)(C)Cc1cncc(F)c1-c1cccc(C2(C)C3=C(CC(C)(C)CC3=O)Nc3ncc(F)cc32)c1` (single isomer, unassigned) [Compound 173A], for which the pIC50 in assay [1] (setting [3]) and in assay [2] (setting [4]) was 5.30 to 6.00 each time.

As to `COc1cncc(F)c1-c1cccc(C2(C)C3=C(CC(C)(C)CC3=O)Nc3ncc(C(F)(F)F)cc32)c1` (single isomer, unassigned) [Compound 174A], the pIC50 in assay [1] (setting [3]) and in assay [2] (setting [4]) was 5.30 to 6.00 in each case.
